Among the data in PubChem BioAssay AID844 (SRMLSC, 2007) are fold increase in Dox EC50 and EC50 values, retold here.

Structures are written as SMILES. Activity calls are given as the source filed them. No rule for the calls is given here.

This experiment relates to MRP1 cells, doxorubicin viability shift, 10 uM compound. Description: viability protection against doxorubicin, MRP-1 line – cell-based, doxorubicin EC50 shift, dose response (AID 844). The following applies: for EC50: measured here: doxorubicin EC50 with compound.

Take `CCCCOc1ccc(/C=C/C(=O)Nc2ccc([N+](=O)[O-])cc2C)cc1`: the fold increase in Dox EC50 is 1.17 (inactive) and the EC50 (as a rule, the concentration at which the effect is half-maximal) stood at 6.3 µM.
As to `CCC1(C)Cc2c(sc3nnn(CC(=O)Nc4ccc(C)cc4)c(=O)c23)CO1` (stereo not drawn), the fold increase in Dox EC50 is 1.07 (inactive) and the EC50 stood at 5.79 µM.
As for `Cc1n[nH]c(=S)n(/N=C/c2ccccn2)c1=O`, the fold increase in Dox EC50 is 0.91 (inactive) and the EC50 came to 4.9 µM.
Take `N/C(Cc1cccs1)=N\OC(=O)COc1ccc(Br)cc1`: the fold increase in Dox EC50 was 1.01 (inactive) and the EC50 was determined as 5.44 µM.
For `O=C(Nc1nnc(C(F)(F)F)s1)C1COc2ccccc2O1` (stereo not drawn), the fold increase in Dox EC50 is 0.85 (inactive) and the EC50 was 4.56 µM.
As for `Cc1ccc(N/N=C(\C#N)C(=N)N2CCOCC2)cc1`, the fold increase in Dox EC50 was 0.92 (inactive) and the EC50 came out at 4.95 µM.
With `Cc1ccccc1NC(=O)CSC1=NCCN1`, the fold increase in Dox EC50 is 0.69 (inactive) and the EC50 stood at 3.73 µM.
In the case of `O=C(Nc1nc(=O)n(C(=O)C2CC2)s1)c1ccccc1`, the fold increase in Dox EC50 was 0.55 (inactive) and the EC50 was found to be 2.97 µM.
As to `CCOC(=O)c1c(-c2ccc(F)cc2)csc1NC(=O)c1c(-c2ccccc2)noc1C`, the fold increase in Dox EC50 is 0.56 (inactive) and the half-maximal effective concentration (EC50) is 3 µM.
Take `Cc1ccc(Nc2nc(CSc3nnnn3C)cs2)cc1`: the fold increase in Dox EC50 was 1.18 (inactive) and the EC50 came to 6.36 µM.
Consider `Cc1ccc(S(=O)(=O)N2CCN(c3nc(C)c4c(c3C#N)CC(C)(C)OC4)CC2)cc1`, for which the fold increase in Dox EC50 is 0.72 (inactive) and the EC50 is 3.91 µM.
As to `O=C(CCc1ccccc1)N/N=C/c1cc(Br)ccc1O`, the fold increase in Dox EC50 was 0.12 (inactive) and the EC50 turned out to be 0.631 µM.
Take `O=C(CSCc1ccc(Cl)cc1)N1CCN(Cc2ccc3c(c2)OCO3)CC1`: the fold increase in Dox EC50 was 0.77 (inactive) and the EC50 amounted to 4.18 µM.
On the same counts, the results for `CC(/C=C1\SC(=S)N(NC(=O)c2ccc(O)cc2)C1=O)=C\c1ccccc1` are 0.83 (inactive) and 4.46 µM.
On the same counts, the results for `CCOC(=O)c1ccc(Oc2nc(NC(C)(C)C)nc(N(C)C)n2)cc1` are 0.82 (inactive) and 4.43 µM.
For `CCOC(=O)C1CCCN(Cc2ccc(OC)cc2OC)C1` (stereo not drawn), the fold increase in Dox EC50 was 0.35 (inactive) and the EC50 was 1.91 µM.
On to `O=C(Nc1cccc(Cl)c1)c1c(O)c2c(n(Cc3ccccc3)c1=O)CCCC2`, for which the fold increase in Dox EC50 was 1.14 (inactive) and the EC50 worked out at 6.17 µM.
In the case of `COc1ccccc1-c1nc(C#N)c(N2CCc3ccccc3C2)o1`, the fold increase in Dox EC50 was 0.37 (inactive) and the EC50 was 1.99 µM.
On the same counts, the results for `COc1cc(/C=N/NC(=O)C23CC4CC(CC(C4)C2)C3)cc(Br)c1O` are 0.66 (inactive) and 3.54 µM.
As for `Nc1ccc(CC2SC(=O)NC2=O)cc1` (stereo not drawn), the fold increase in Dox EC50 was 1.24 (inactive) and the concentration giving a half-maximal response (EC50) was found to be 6.72 µM.
On the same counts, the results for `COC(=O)c1ccc(COc2cc(O)c3c(c2)OC(C)(C)CC3=O)cc1` are 1.03 (inactive) and 5.56 µM.
For the compound `Cc1ccc(C)c(/C(O)=C2\C(=O)C(=O)N(CCCn3ccnc3)C2c2ccncc2)c1` (stereo not drawn), the fold increase in Dox EC50 is 1.17 (inactive) and the EC50 amounted to 6.31 µM.
Take `CCc1nnc(NC(=O)CCC(=O)N2CCN(Cc3ccc(Cl)cc3)CC2)s1`: the fold increase in Dox EC50 is 0.76 (inactive) and the EC50 turned out to be 4.09 µM.
For `Cc1ccc(C(=O)CCC(=O)Nc2ccc(Cl)c(S(=O)(=O)Nc3cccc(Cl)c3)c2)cc1`, the fold increase in Dox EC50 is 1.15 (inactive) and the EC50 amounted to 6.21 µM.
Take `CCOC(=O)c1ccc(NC(=O)C2CCN(C(=O)c3ccc(OC)c(OC)c3)CC2)cc1`: the fold increase in Dox EC50 was 0.99 (inactive) and the EC50 amounted to 5.35 µM.
On to `CCC(Oc1ccccc1)C(=O)Nc1nnc(C(F)(F)F)s1` (stereo not drawn), for which the fold increase in Dox EC50 was 1.69 and the EC50 amounted to 9.1 µM.
For `Cc1nc(NC(=S)NC(=O)c2cccs2)sc1C(=O)N(C)C`, the fold increase in Dox EC50 was 1.04 (inactive) and the EC50 was found to be 5.59 µM.
Take `Cc1cccc(Nc2nnc(SCC(=O)Nc3cccnc3Cl)s2)c1`: the fold increase in Dox EC50 is 0.61 (inactive) and the EC50 is 3.3 µM.
On the same counts, the results for `CCOc1ccc2nc(SCC#N)c(C#N)cc2c1` are 0.3 (inactive) and 1.62 µM.
Taken in the same sequence, the figures for `CCN(CC)S(=O)(=O)c1ccc(NN=C(C#N)C#N)cc1` were 0.68 (inactive) and 3.7 µM.
As for `COc1ccc(Cl)cc1NC(=O)CSc1nnc(COc2ccccc2)n1N`, the fold increase in Dox EC50 was 0.86 (inactive) and the EC50 was determined as 4.64 µM.
For `Cc1cc(N2CCN(c3cccc(C)c3C)CC2)nc(-c2ccccc2)n1`, the fold increase in Dox EC50 was 0.99 (inactive) and the EC50 was found to be 5.37 µM.
Regarding `Cc1nn(Cc2ccccc2)c(C)c1NC(=O)c1noc2c1CCc1ccccc1-2`, the fold increase in Dox EC50 is 0.95 (inactive) and the EC50 stood at 5.11 µM.
For the compound `O=C(CSc1ncn[nH]1)N1N=C2/C(=C/c3ccco3)CCCC2C1c1ccco1` (stereo not drawn), the fold increase in Dox EC50 was 0.4 (inactive) and the EC50 came out at 2.17 µM.
On the same counts, the results for `Cc1ccc(CN2C(=O)NC(=O)C3(Cc4c(nc5ccccn5c4=O)N4CCCCCC43)C2=O)cc1` (stereo not drawn) are 1.02 (inactive) and 5.51 µM.
On to `CCc1nnc(NC(=O)c2ccc(S(=O)(=O)N3CCCCCC3)cc2)s1`, for which the fold increase in Dox EC50 was 0.9 (inactive) and the EC50 stood at 4.88 µM.
On to `CC(CCc1ccccc1)NC(=O)CN1CCN(Cc2ccc(Cl)cc2)C1=O` (stereo not drawn), for which the fold increase in Dox EC50 is 1.03 (inactive) and the EC50 turned out to be 5.58 µM.
On to `O=C1N=C(c2ccccc2)S/C1=C\c1cccs1`, for which the fold increase in Dox EC50 was 1.2 (inactive) and the EC50 came out at 6.5 µM.
Consider `CC(/C=N/NC(=O)c1nn(C)c(C)c1Br)=C\c1ccccc1`, for which the fold increase in Dox EC50 is 1.25 (inactive) and the EC50 was 6.72 µM.
Consider `CCc1c(C)sc(NC(=O)c2cccs2)c1C(=O)OC(C)C`, for which the fold increase in Dox EC50 was 0.42 (inactive) and the EC50 was found to be 2.26 µM.
As for `Cc1noc(/C=C/N(C)C)c1S(=O)(=O)N1CCCC(C(=O)N2CCCCC2)C1` (stereo not drawn), the fold increase in Dox EC50 was 0.74 (inactive) and the EC50 worked out at 3.98 µM.
Consider `C=CCNC(=O)c1ccccc1NC(=O)c1ccc(Cl)c(S(=O)(=O)Nc2cccc(C)c2C)c1`, for which the fold increase in Dox EC50 was 0.36 (inactive) and the EC50 stood at 1.96 µM.
As to `COc1ccc(-c2ocnc2C(=O)Nc2ccccc2N2CCCCC2)cc1`, the fold increase in Dox EC50 is 0.81 (inactive) and the EC50 worked out at 4.37 µM.
As for `S=C(N/N=C/c1ccc(Cl)cc1)N1CCOCC1`, the fold increase in Dox EC50 is 1.22 (inactive) and the half-maximal effective concentration (EC50) turned out to be 6.57 µM.
Consider `COc1ccc(NC(=O)CC2C(=O)N(c3ccc(F)cc3)C(=S)N2NC(=O)c2ccccc2)cc1` (stereo not drawn), for which the fold increase in Dox EC50 was 0.79 (inactive) and the EC50 stood at 4.29 µM.
For the compound `Cc1c(C(=O)Nc2nnc(C(F)(F)F)s2)oc2ccccc12`, the fold increase in Dox EC50 is 2.05 and the concentration giving a half-maximal response (EC50) was 11 µM.
On the same counts, the results for `COc1ccc(Cl)cc1C(=O)Nc1ccc2c(c1)OCO2` are 0.66 (inactive) and 3.57 µM.
On the same counts, the results for `Cc1nc(=O)c(-c2ccccc2)c(C)n1-c1cccc(C(=O)O)c1` are 1.26 (inactive) and 6.82 µM.
On the same counts, the results for `N#CCSc1nc2cc(C(=O)N3CCC(C(N)=O)CC3)ccc2c2nc3ccccc3n12` are 0.86 (inactive) and 4.62 µM.
With `CCCN1C(=O)/C(=N\OCC(=O)Nc2ccc(C(C)C)cc2)c2ccccc21`, the fold increase in Dox EC50 was 0.74 (inactive) and the EC50 amounted to 3.99 µM.
On the same counts, the results for `O=C1CSC2=NCN(c3ccccc3)CN12` are 0.55 (inactive) and 2.95 µM.
As to `c1ccc(OCCSc2nc3ccccc3[nH]2)cc1`, the fold increase in Dox EC50 was 1.03 (inactive) and the EC50 stood at 5.54 µM.
Regarding `CCOc1ccc2c(c1)c(N=O)c(O)n2C`, the fold increase in Dox EC50 is 0.58 (inactive) and the EC50 was 3.14 µM.
On the same counts, the results for `CCCCCCC1CC(CSc2ncn[nH]2)OC1=O` (stereo not drawn) are 1.14 (inactive) and 6.14 µM.
With `CC1(C)Cc2c(sc3nnn(Cc4ccc(Cl)cc4)c(=O)c23)CO1`, the fold increase in Dox EC50 was 0.85 (inactive) and the EC50 turned out to be 4.57 µM.
`Cc1nnc(NC(=O)COc2ccccc2)s1`: the fold increase in Dox EC50 was 1.25 (inactive) and the EC50 stood at 6.73 µM.
On to `CC(C)(C)NC(NC(=O)Cc1ccccc1)C(Cl)(Cl)Cl` (stereo not drawn), for which the fold increase in Dox EC50 is 1.07 (inactive) and the half-maximal effective concentration (EC50) was 5.77 µM.
Taken in the same sequence, the figures for `COc1ccc(-c2cc3nc(C)cc(N4CC(C)CC(C)C4)n3n2)cc1` (stereo not drawn) were 0.64 (inactive) and 3.45 µM.
As for `COc1ccccc1-c1cc(C(=O)NC(C)c2ccccc2)no1` (stereo not drawn), the fold increase in Dox EC50 is 1.04 (inactive) and the concentration for a half-maximal effect (EC50) amounted to 5.64 µM.
With `Cc1cccc(-n2c(SCC(=O)Nc3ncc(Cl)cc3Cl)nc3ccccc32)c1`, the fold increase in Dox EC50 was 0.81 (inactive) and the EC50 was found to be 4.37 µM.
Taken in the same sequence, the figures for `Brc1ccc(OCc2nnc3n2CCC3)cc1` were 1.67 and 9.02 µM.
Consider `CCC1(C)Cc2c(sc3nnn(CC(=O)Nc4ccc(Cl)cc4)c(=O)c23)CO1` (stereo not drawn), for which the fold increase in Dox EC50 was 0.2 (inactive) and the concentration giving a half-maximal response (EC50) came out at 1.09 µM.
In the case of `COc1cccc(/C=N/NC(=O)C(=O)NCc2ccco2)c1O`, the fold increase in Dox EC50 is 0.65 (inactive) and the EC50 came out at 3.54 µM.
As to `CC(=O)NN1C(=O)/C(=C\c2ccc(C)cc2)SC1=S`, the fold increase in Dox EC50 is 1.47 (inactive) and the EC50 turned out to be 7.96 µM.
